Assay results from patent US10253039B2, “Inhibitors of bacterial DNA gyrase with efficacy against gram-negative bacteria” (priority 2014, dated 2019).
Values after ≈ are worked out from the molar mass of the structure shown.

What follows are compounds tested on Streptococcus agalactiae (assay: MIC, 20-strain panel). Details: not given.
Format: cell-based
Procedure: (§1) A microdilution method in 96-well plates was used and the MIC protocol established by the Clinical Laboratory Standards Institute was followed. From a growing subculture, a 1:10000 inoculum of each strain in Luria-Bertani media was prepared and aliquoted 100 μL in 4 columns of wells, except for the top row wells, which contained 200 μL of inoculum. A solution of gyramide C2 was aliquoted into 3 of the wells containing 200 μL and DMSO was added to the 4th well. The liquid in each of wells was mixed with a multi-channel pipet and 100 μL was transferred to the next well and mixed. The 2-fold dilution was continued down the 96-well plate until 100 μL was left, which was discarded. The plates were incubated at 37° C. with shaking for 16-18 hours. The MIC was determined as the lowest concentration that inhibited growth and had no turbidity by visual inspection.
(§2) Minimum inhibitory concentrations of various gyramide compounds against 20 strains of bacteria were determined using the procedure described above.
`Cc1ccc(S(=O)(=O)N[C@@H]2CCN(Cc3ccc(OC(C)C)cc3)C2)cn1` [Compound 139] gave an MIC greater than 8 µg/mL.
For `Cc1ccc(C#N)cc1S(=O)(=O)N[C@@H]1CCN(Cc2ccc(OC(C)C)cc2)C1` [Compound 112], the MIC was greater than 8 µg/mL.
`CC(=O)c1cccc(S(=O)(=O)N[C@@H]2CCN(Cc3ccc(OC4CC4)cc3)C2)c1` [Compound 134] was tested, and the MIC was greater than 8 µg/mL.
Work on `CC(C)(C)Oc1ccc(CN2CC[C@@H](NS(=O)(=O)c3cccc(C#N)c3)C2)cc1` [Compound 13] yielded an MIC greater than 8 µg/mL.
In the case of `Cc1ccc(S(C)(=O)=O)cc1S(=O)(=O)N[C@@H]1CCN(Cc2ccc(-c3ccccc3)cc2)C1` [Compound 73], the MIC is reported as greater than 8 µg/mL.

These compounds were tested on Shigella flexneri (assay: MIC, 20-strain panel). Details: not given.
Format: cell-based
Procedure: as §1, §2
Compound `Cc1ccc(S(=O)(=O)N[C@@H]2CCN(Cc3ccc(OC(C)C)cc3)C2)cn1` [Compound 139] has an MIC greater than 8 µg/mL.
Compound `CC(=O)c1cccc(S(=O)(=O)N[C@@H]2CCN(Cc3ccc(OC4CC4)cc3)C2)c1` [Compound 134] has an MIC greater than 8 µg/mL.

Same assay, conditions: G: Shigella flexneri
`Cc1ccc(C#N)cc1S(=O)(=O)N[C@@H]1CCN(Cc2ccc(OC(C)C)cc2)C1` [Compound 112] gave an MIC greater than 8 µg/mL.
For `CC(C)(C)Oc1ccc(CN2CC[C@@H](NS(=O)(=O)c3cccc(C#N)c3)C2)cc1` [Compound 13], the MIC was greater than 8 µg/mL.
`Cc1ccc(S(C)(=O)=O)cc1S(=O)(=O)N[C@@H]1CCN(Cc2ccc(-c3ccccc3)cc2)C1` [Compound 73] was tested, and the MIC was greater than 8 µg/mL.

Each compound was assayed on Staphylococcus epidermidis (assay: MIC, 20-strain panel). Details: not given.
Format: cell-based
Procedure: as §1, §2
Work on `Cc1ccc(S(=O)(=O)N[C@@H]2CCN(Cc3ccc(OC(C)C)cc3)C2)cn1` [Compound 139] yielded an MIC greater than 8 µg/mL.
`Cc1ccc(C#N)cc1S(=O)(=O)N[C@@H]1CCN(Cc2ccc(OC(C)C)cc2)C1` [Compound 112] was tested, and the MIC was greater than 8 µg/mL.
`CC(=O)c1cccc(S(=O)(=O)N[C@@H]2CCN(Cc3ccc(OC4CC4)cc3)C2)c1` [Compound 134] showed an MIC greater than 8 µg/mL.
With `CC(C)(C)Oc1ccc(CN2CC[C@@H](NS(=O)(=O)c3cccc(C#N)c3)C2)cc1` [Compound 13] the MIC was greater than 8 µg/mL.
Compound `Cc1ccc(S(C)(=O)=O)cc1S(=O)(=O)N[C@@H]1CCN(Cc2ccc(-c3ccccc3)cc2)C1` [Compound 73] has an MIC greater than 8 µg/mL.

Each compound was assayed on E. coli JW5503 (deltolC) (assay: MIC, 20-strain panel). Details: Escherichia coli, C: E. coli JW5503 (deltolC).
Format: cell-based
Procedure: as §1, §2
Work on `Cc1ccc(C#N)cc1S(=O)(=O)N[C@@H]1CCN(Cc2ccc(OC(C)C)cc2)C1` [Compound 112] yielded an MIC of 0.25 µg/mL (≈ 0.605 µM).
`CC(C)(C)Oc1ccc(CN2CC[C@@H](NS(=O)(=O)c3cccc(C#N)c3)C2)cc1` [Compound 13] showed an MIC of 8 µg/mL (≈ 19.3 µM).
`Cc1ccc(S(C)(=O)=O)cc1S(=O)(=O)N[C@@H]1CCN(Cc2ccc(-c3ccccc3)cc2)C1` [Compound 73] showed an MIC of 4 µg/mL (≈ 8.25 µM).

Same assay, conditions: Escherichia coli, E. coli JW5503 (deltolC)
In the case of `Cc1ccc(S(=O)(=O)N[C@@H]2CCN(Cc3ccc(OC(C)C)cc3)C2)cn1` [Compound 139], the MIC is reported as greater than 8 µg/mL.
`CC(=O)c1cccc(S(=O)(=O)N[C@@H]2CCN(Cc3ccc(OC4CC4)cc3)C2)c1` [Compound 134] was tested, and the MIC was 4 µg/mL (≈ 9.65 µM).

What follows are compounds tested on Streptococcus pyogenes (assay: MIC, 20-strain panel). Details: not given.
Format: cell-based
Procedure: as §1, §2
Compound `Cc1ccc(S(=O)(=O)N[C@@H]2CCN(Cc3ccc(OC(C)C)cc3)C2)cn1` [Compound 139] has an MIC greater than 8 µg/mL.
For `Cc1ccc(C#N)cc1S(=O)(=O)N[C@@H]1CCN(Cc2ccc(OC(C)C)cc2)C1` [Compound 112], the MIC was greater than 8 µg/mL.
In the case of `CC(=O)c1cccc(S(=O)(=O)N[C@@H]2CCN(Cc3ccc(OC4CC4)cc3)C2)c1` [Compound 134], the MIC is reported as greater than 8 µg/mL.
In the case of `CC(C)(C)Oc1ccc(CN2CC[C@@H](NS(=O)(=O)c3cccc(C#N)c3)C2)cc1` [Compound 13], the MIC is reported as greater than 8 µg/mL.
With `Cc1ccc(S(C)(=O)=O)cc1S(=O)(=O)N[C@@H]1CCN(Cc2ccc(-c3ccccc3)cc2)C1` [Compound 73] the MIC was greater than 8 µg/mL.

These compounds were tested on Staphylococcus aureus subsp. aureus (assay: MIC, 20-strain panel). Details: H: Staphylococcus aureus subsp. aureus, read-out: MIC.
Format: cell-based
Procedure: as §1, §2
For `Cc1ccc(C#N)cc1S(=O)(=O)N[C@@H]1CCN(Cc2ccc(OC(C)C)cc2)C1` [Compound 112], the MIC was greater than 8 µg/mL.
Compound `CC(C)(C)Oc1ccc(CN2CC[C@@H](NS(=O)(=O)c3cccc(C#N)c3)C2)cc1` [Compound 13] has an MIC greater than 8 µg/mL.
For `Cc1ccc(S(C)(=O)=O)cc1S(=O)(=O)N[C@@H]1CCN(Cc2ccc(-c3ccccc3)cc2)C1` [Compound 73], the MIC was greater than 8 µg/mL.

Same assay, conditions: Staphylococcus aureus subsp. aureus, read-out: MIC
For `Cc1ccc(S(=O)(=O)N[C@@H]2CCN(Cc3ccc(OC(C)C)cc3)C2)cn1` [Compound 139], the MIC was greater than 8 µg/mL.
Work on `CC(=O)c1cccc(S(=O)(=O)N[C@@H]2CCN(Cc3ccc(OC4CC4)cc3)C2)c1` [Compound 134] yielded an MIC greater than 8 µg/mL.

What follows are compounds tested on Klebsiella pneumoniae subsp. pneumoniae (assay: MIC, 20-strain panel). Details: E: Klebsiella pneumoniae subsp. pneumoniae.
Format: cell-based
Procedure: as §1, §2
`Cc1ccc(C#N)cc1S(=O)(=O)N[C@@H]1CCN(Cc2ccc(OC(C)C)cc2)C1` [Compound 112] gave an MIC greater than 8 µg/mL.
`CC(C)(C)Oc1ccc(CN2CC[C@@H](NS(=O)(=O)c3cccc(C#N)c3)C2)cc1` [Compound 13] gave an MIC greater than 8 µg/mL.
Compound `Cc1ccc(S(C)(=O)=O)cc1S(=O)(=O)N[C@@H]1CCN(Cc2ccc(-c3ccccc3)cc2)C1` [Compound 73] has an MIC greater than 8 µg/mL.

Same assay, conditions: Klebsiella pneumoniae subsp. pneumoniae
Compound `Cc1ccc(S(=O)(=O)N[C@@H]2CCN(Cc3ccc(OC(C)C)cc3)C2)cn1` [Compound 139] has an MIC greater than 8 µg/mL.
In the case of `CC(=O)c1cccc(S(=O)(=O)N[C@@H]2CCN(Cc3ccc(OC4CC4)cc3)C2)c1` [Compound 134], the MIC is reported as greater than 8 µg/mL.

Each compound was assayed on Salmonella enterica subsp. enterica typhimurium (assay: MIC, 20-strain panel). Details: F: Salmonella enterica subsp. enterica Typhimurium.
Format: cell-based
Procedure: as §1, §2
`Cc1ccc(C#N)cc1S(=O)(=O)N[C@@H]1CCN(Cc2ccc(OC(C)C)cc2)C1` [Compound 112] was tested, and the MIC was 4 µg/mL (≈ 9.67 µM).
Work on `CC(C)(C)Oc1ccc(CN2CC[C@@H](NS(=O)(=O)c3cccc(C#N)c3)C2)cc1` [Compound 13] yielded an MIC greater than 8 µg/mL.
`Cc1ccc(S(C)(=O)=O)cc1S(=O)(=O)N[C@@H]1CCN(Cc2ccc(-c3ccccc3)cc2)C1` [Compound 73] was tested, and the MIC was greater than 8 µg/mL.

Same assay, conditions: Salmonella enterica subsp. enterica Typhimurium
`Cc1ccc(S(=O)(=O)N[C@@H]2CCN(Cc3ccc(OC(C)C)cc3)C2)cn1` [Compound 139] showed an MIC greater than 8 µg/mL.
For `CC(=O)c1cccc(S(=O)(=O)N[C@@H]2CCN(Cc3ccc(OC4CC4)cc3)C2)c1` [Compound 134], the MIC was roughly 8 µg/mL (≈ 19.3 µM).

What follows are compounds tested on E. coli MG1655 (assay: MIC, 20-strain panel). Details: Escherichia coli, MG1655, A: E. coli MG1655; read-out: MIC.
Format: cell-based
Procedure: as §1, §2
In the case of `Cc1ccc(C#N)cc1S(=O)(=O)N[C@@H]1CCN(Cc2ccc(OC(C)C)cc2)C1` [Compound 112], the MIC is reported as greater than 8 µg/mL.
For `CC(C)(C)Oc1ccc(CN2CC[C@@H](NS(=O)(=O)c3cccc(C#N)c3)C2)cc1` [Compound 13], the MIC was greater than 8 µg/mL.
Compound `Cc1ccc(S(C)(=O)=O)cc1S(=O)(=O)N[C@@H]1CCN(Cc2ccc(-c3ccccc3)cc2)C1` [Compound 73] has an MIC greater than 8 µg/mL.

Same assay, conditions: Escherichia coli, MG1655, E. coli MG1655; read-out: MIC
`Cc1ccc(S(=O)(=O)N[C@@H]2CCN(Cc3ccc(OC(C)C)cc3)C2)cn1` [Compound 139] showed an MIC greater than 8 µg/mL.
Work on `CC(=O)c1cccc(S(=O)(=O)N[C@@H]2CCN(Cc3ccc(OC4CC4)cc3)C2)c1` [Compound 134] yielded an MIC greater than 8 µg/mL.

The compounds below were run on Staphylococcus saprophyticus subsp. saprophyticus (assay: MIC, 20-strain panel). Details: not given.
Format: cell-based
Procedure: as §1, §2
Compound `Cc1ccc(S(=O)(=O)N[C@@H]2CCN(Cc3ccc(OC(C)C)cc3)C2)cn1` [Compound 139] has an MIC greater than 8 µg/mL.
For `Cc1ccc(C#N)cc1S(=O)(=O)N[C@@H]1CCN(Cc2ccc(OC(C)C)cc2)C1` [Compound 112], the MIC was greater than 8 µg/mL.
With `CC(=O)c1cccc(S(=O)(=O)N[C@@H]2CCN(Cc3ccc(OC4CC4)cc3)C2)c1` [Compound 134] the MIC was greater than 8 µg/mL.
`CC(C)(C)Oc1ccc(CN2CC[C@@H](NS(=O)(=O)c3cccc(C#N)c3)C2)cc1` [Compound 13] showed an MIC greater than 8 µg/mL.
`Cc1ccc(S(C)(=O)=O)cc1S(=O)(=O)N[C@@H]1CCN(Cc2ccc(-c3ccccc3)cc2)C1` [Compound 73] was tested, and the MIC was greater than 8 µg/mL.

What follows are compounds tested on E. coli BW25113 (assay: MIC, microdilution in 96-well plates). Details: Escherichia coli, BW25113, B: E. coli BW25113; read-out: MIC.
Format: cell-based
How it was run: (§3)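 CLSI microdilution, LB, 1:10000 inoculum of actively growing culture; 2-fold dilution series in triplicate, DMSO control lane; 37° C., shaking, 16-18 h; endpoint = no visible growth.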
`Cc1ccc(C#N)cc1S(=O)(=O)N[C@@H]1CCN(Cc2ccc(OC(C)C)cc2)C1` [Compound 112] gave an MIC greater than 8 µg/mL.
For `CC(C)(C)Oc1ccc(CN2CC[C@@H](NS(=O)(=O)c3cccc(C#N)c3)C2)cc1` [Compound 13], the MIC was greater than 8 µg/mL.
`Cc1ccc(S(C)(=O)=O)cc1S(=O)(=O)N[C@@H]1CCN(Cc2ccc(-c3ccccc3)cc2)C1` [Compound 73] was tested, and the MIC was greater than 8 µg/mL.

Same assay, conditions: Escherichia coli, BW25113, E. coli BW25113; read-out: MIC
For `Cc1ccc(S(=O)(=O)N[C@@H]2CCN(Cc3ccc(OC(C)C)cc3)C2)cn1` [Compound 139], the MIC was greater than 8 µg/mL.
Work on `CC(=O)c1cccc(S(=O)(=O)N[C@@H]2CCN(Cc3ccc(OC4CC4)cc3)C2)c1` [Compound 134] yielded an MIC greater than 8 µg/mL.

Each compound was assayed on Edwardsiella tarda (assay: MIC, microdilution in 96-well plates). Details: not given.
Format: cell-based
How it was run: as §3
Work on `Cc1ccc(S(=O)(=O)N[C@@H]2CCN(Cc3ccc(OC(C)C)cc3)C2)cn1` [Compound 139] yielded an MIC greater than 8 µg/mL.
`CC(=O)c1cccc(S(=O)(=O)N[C@@H]2CCN(Cc3ccc(OC4CC4)cc3)C2)c1` [Compound 134] showed an MIC greater than 8 µg/mL.

Same assay, conditions: D: Edwardsiella tarda
In the case of `Cc1ccc(C#N)cc1S(=O)(=O)N[C@@H]1CCN(Cc2ccc(OC(C)C)cc2)C1` [Compound 112], the MIC is reported as greater than 8 µg/mL.
Compound `CC(C)(C)Oc1ccc(CN2CC[C@@H](NS(=O)(=O)c3cccc(C#N)c3)C2)cc1` [Compound 13] has an MIC greater than 8 µg/mL.
For `Cc1ccc(S(C)(=O)=O)cc1S(=O)(=O)N[C@@H]1CCN(Cc2ccc(-c3ccccc3)cc2)C1` [Compound 73], the MIC was greater than 8 µg/mL.
